Among the data in the OPERA property sets (Mansouri et al. 2018) are logP values, retold here.

Where a SMILES comes first, the peptide text is derived from it.

As for `O=c1cc(-c2ccccc2)[nH]n1-c1ccc(Cl)cc1`, the lipophilicity (logP) came to 2.6.
The molecule `Cc1nc(C(Cl)(Cl)Cl)nc(C(Cl)(Cl)Cl)n1` returned a logP of 3.78.
`CS(=O)(=O)CC(=O)C=NO` showed a lipophilicity (logP) of -0.69.
The same measure for `COc1ccc(C2Cc3cc(Sc4ccccc4)ccc3N(CCN(C)C)C(=O)C2OC(C)=O)cc1` (stereo unspecified): 5.8.
The same measure for `CN1CCN(CCCOn2nnc3ccccc32)CC1`: 1.3; for `CC(C)C(N)C(=O)NC(C(=O)O)C(C)C` (stereo not drawn) (H-Val-Val-OH; configuration not given here): -2.82.
The same measure for `COC(=O)Cn1c(C)nc2ccccc2c1=O`: 1.46.
Take `Cc1ccc(S(=O)(=O)C2(C(=O)OC(C)C)CCCCC2)cc1`: the logP was 3.21.
`O=c1cc(-c2ccc(Cl)cc2Cl)oc2ccccc12`: the log partition coefficient (logP) was 4.13.
The molecule `O=C(NC(Cc1c[nH]c2ccccc12)C(=O)O)OCc1ccccc1` (stereo unspecified) returned a log partition coefficient (logP) of 3.2.
Consider `CC(C)CC(NC(=O)C(N)Cc1ccc(O)cc1)C(=O)NC(C(=O)O)C(C)C` (stereo not drawn) (H-Tyr-Leu-Val-OH; configuration not given here), for which the log partition coefficient (logP) was -1.45.
The same measure for `Cc1nc2c3c(c(C(=O)N(C)C)cn2c1C)CCC(c1ccccc1F)O3` (stereo unspecified): 3.6; for `CC(=O)c1ccc(Cl)cc1O`: 2.97.
Turning to `COc1cc2c(c(OC)c1OC)-c1ccc(O)c(=O)cc1C(N)CC2` (stereo unspecified), the logP is 0.74.
The same measure for `COc1ccccc1OCCN(C)C`: 1.42.
The same measure for `CCOc1cccc(COC(=O)C2C(C=C(C)C(=O)OC)C2(C)C)c1` (stereo unspecified): 4.78; for `Clc1ccccc1CNc1ncnc2nc[nH]c12`: 2.76; for `CCC(C)C(NC(=O)C(N)Cc1ccccc1)C(=O)NC(C(=O)O)C(C)O` (stereo not drawn) (H-Phe-Ile-Thr-OH; configuration not given here): -1.95.
On to `Cc1ccc(Cc2c[nH]cn2)cc1C`, for which the log partition coefficient (logP) was found to be 2.72.
The same measure for `CCOC(=O)CCCn1cnc([N+](=O)[O-])n1`: 0.42; for `O=C(NCCNCC(O)COc1ccc(CCOCCOCC2CC2)cc1)N1CCC(O)CC1` (stereo unspecified): 1; for `CSc1cnc(C2=NC(C)(C(C)C)C(=O)N2)c(C(=O)O)c1` (stereo unspecified): 0.75.
The same measure for `O=S(NC(=S)N1CCCCC1)c1cnccc1NC1CCCCC1` (stereo unspecified): 3.75; for `O=C1C=C(N2CCCCCC2)CN1c1ccc(Cl)cc1`: 3.4; for `COc1ccccc1NC(=O)OCCN1CCCCC1`: 3.11.
In turn, `COc1ccc(Nc2nc(N)nc(O)n2)cc1OC` returned a logP of 1.76.
The same measure for `OCCN1CCN(CCn2nnc3ccccc32)CC1`: -0.05; for `CC(C)CC(NC(=O)C(N)CO)C(=O)O` (stereo not drawn) (H-Ser-Leu-OH; configuration not given here): -2.49.
The same measure for `O=C1CC=C2C3CC4N(CCC45c4ccccc4N1C25)C/C3=C\CO` (stereo unspecified): 1.37; for `CC(C(=O)O)c1ccc(OCc2ccccc2)c(F)c1` (stereo unspecified): 3.61; for `CC[C@H](C)C(=O)O[C@H]1C[C@H](O)C=C2C=C[C@H](C)[C@H](CC[C@@H](O)C[C@@H](O)CC(=O)O)[C@H]21`: 2.18.
The same measure for `O=C1Nc2ccc(Cl)cc2C(c2ccccc2F)=NC1O` (stereo unspecified): 1.81.
For `CCCNC(=O)CNC(=O)C=[N+]=[N-]`, the logP is -0.24.
With `C=CCNc1nc(CCC)nc(N2CCOCC2)n1`, the lipophilicity (logP) was 2.37.
Regarding `CCOC(=O)C1=C(C)NC(C)=C(C(=O)OC)C1c1cccc(OC)c1OC` (stereo unspecified), the logP was 3.58.
For `CON=C(C(=O)NC1C(=O)N2C(C(=O)OCc3oc(=O)oc3C)=CCSC12)c1csc(N)n1` (stereo unspecified), the logP was found to be 0.17.
The same measure for `CCC(C)C(N)C(=O)NC(C(=O)NC(C(=O)O)C(C)O)C(C)CC` (stereo not drawn) (H-Ile-Ile-Thr-OH; configuration not given here): -2.23; for `Cc1ccc(Cl)c(Cc2ccc(Cl)cc2Cl)c1`: 6.38.
The same measure for `CC(=O)N(O)CCCCCNC(=O)CCC(=O)N(O)CCCCCNC(=O)CCC(=O)N(O)CCCCCNC(=O)CCC(=O)O`: -0.51; for `COC(=O)C(C)NP(=O)(OCC1C=CC(n2cc(C)c(=O)[nH]c2=O)O1)Oc1ccc(Br)cc1` (stereo unspecified): 1.6.
In turn, `Cc1[nH]c2ccccc2c1Cc1n[nH]c(=S)n1-c1ccccc1` gave a lipophilicity (logP) of 2.55.
The same measure for `NC(Cc1ccc(O)cc1)C(=O)N1CCCC1C(=O)O` (stereo not drawn) (H-Tyr-Pro-OH; configuration not given here): -2.03.
The same measure for `C=C(Br)CON=C(C)c1cccc(Oc2nc(OC)cc(OC)n2)c1C(=O)OC`: 3.73; for `COCCNC(=O)Cn1cnc([N+](=O)[O-])n1`: -0.85; for `CC(C)NC(=NC#N)NS(=O)(=O)c1cnccc1NC1CCCC1`: 0.98.
Consider `COc1ccc(C2=NC(C(=O)O)CS2)c(O)c1OC` (stereo unspecified), for which the logP worked out at 1.1.
The same measure for `O=C1c2ccccc2-c2nnc(-c3ccc(O)cc3)cc21`: 2.88.
The same measure for `O=C1CN=C(c2ccccc2F)c2cc(Br)ccc2N1`: 2.98.
Molecule `CCC1OC(Cn2cncn2)(c2ccc(Cl)cc2Cl)OC1C` (stereo unspecified) registered a logP of 3.41.
On to `Nc1nc(N)c2c(S(=O)(=O)c3ccccc3)cccc2n1`, for which the logP came out at 2.14.
The same measure for `COc1cc(Cl)ccc1O`: 2.15; for `Cc1cnc(C(=O)OCCCn2ccc(=O)c(O)c2C)cn1`: -0.49; for `COC(=O)C(C)NP(=O)(OCC1C=CC(n2cc(C)c(=O)[nH]c2=O)O1)Oc1ccc(Cl)c(Cl)c1` (stereo unspecified): 2.15.
Turning to `COCCNC(=O)c1c(C)nc2c3c(c(C(=O)N(C)C)cn12)CCC(c1ccccc1)O3` (stereo unspecified), the log partition coefficient (logP) came out at 2.15.
Consider `O=c1ccc2cc3ccoc3cc2s1`, for which the lipophilicity (logP) came out at 2.61.
For `OC(CNC1CCCCC1)CON=C(C1CC1)C1CC1` (stereo unspecified), the lipophilicity (logP) came out at 2.64. This logP and that of the molecule before are within 0.2 log units of each other.
The same measure for `O=C(NCC(F)(F)F)NS(=O)(=O)c1cnccc1NC1CCCCCC1`: 3.85; for `O=C1C=C(N2CCOCC2)C(=O)N1c1ccc(F)cc1`: 1.5.
As for `Nc1ccc(CNC(=O)C2CCCN2C(=O)C(Cc2ccc(Cl)c(Cl)c2)NS(=O)(=O)Cc2ccccc2)cn1` (stereo unspecified), the logP stood at 3.68.
The same measure for `CC(=O)NC(CCCNC(=O)N(CCCl)N=O)C(=O)NCc1ccccc1` (stereo unspecified): 1.33; for `CC1(C(=O)O)CSC(c2cc(O)ccc2O)=N1` (stereo unspecified): 1.3; for `NC1=NCC(CN2CCOCC2)O1` (stereo unspecified): -0.22.
In turn, `NS(=O)(=O)c1ccc(Cn2cnc3ccccc32)cc1` yielded a logP of 1.04.
The same measure for `CC(=O)c1ccc(Br)cc1O`: 3.15.
The same measure for `O=c1cc(-c2cccc(Cl)c2)oc2ccc(Cl)cc12`: 4.38; for `CC(=O)c1c(C)nc2c3c(c(C(=O)N(C)C)cn12)CCC(c1ccccc1)O3` (stereo unspecified): 2.75; for `Cc1cc2c(ccc3cc(C)c(=O)oc32)o1`: 2.97.
`CCNC(=O)NS(=O)(=O)c1cnccc1Nc1ccccc1C` registered a log partition coefficient (logP) of 3.06.
The same measure for `OC(CNC1CCCC1)CON=C(C1CC1)C1CC1` (stereo unspecified): 2.46; for `COc1ccc2cc(C(C)C(=O)OCOC(C)=O)ccc2c1` (stereo unspecified): 3.4.
The same measure for `CNc1ccc(S(=O)(=O)N(C)C)cc1`: 1.43; for `CCCCCCCCCCCCCCNCCO`: 5.74; for `CCCc1c(O)c(=O)cc(C)n1C`: 0.4.
The same measure for `CCCOc1ccc(NC(=O)OCCN2CCCCC2)cc1`: 4.2.
Molecule `O=C1Nc2ccc3cc4ccccc4nc3c2CO1` displayed a logP of 1.64.
The same measure for `Cc1[nH]cnc1CSCCNc1ncc(Cc2cccc3c2OCO3)c(=O)n1C`: 2.51; for `O=C1c2ccccc2-c2nnc(-c3ccccc3[N+](=O)[O-])cc21`: 2.64.
The same measure for `CN(c1ccc2cc3ccc4c(c3nc2c1)COCN4)S(C)(=O)=O`: 1.54; for `Cc1ccc(Nc2ccncc2S(=O)(=O)NC(=NC#N)NC(C)C)cc1`: 1.91.
The same measure for `CCC(C)C(N)C(=O)NC(C(=O)NCC(=O)NC(Cc1ccccc1)C(=O)O)C(C)CC` (stereo unspecified) (H-IIGF-OH; configuration not given here): -0.99; for `O=C1Oc2ccccc2CN1CCO[N+](=O)[O-]`: 1.82.
`O=S(=O)(NC(=S)NC1CCCCC1)c1cnccc1NC1CCCCCCC1` yielded a logP of 5.04.
The same measure for `c1ccc2c(c1)OCC(c1ncc[nH]1)O2` (stereo unspecified): 1.76; for `CON(C)C(=O)Nc1ccc(OC(C)CC2CCCCC2)cc1` (stereo unspecified): 4.51.
The same measure for `CSCC[C@H](N)C(=O)N1CCC[C@H]1C(=O)O` (H-Met-Pro-OH): -2.52; for `Cc1oc2nc3oc(=O)cc(C)c3cc2c1C`: 2.25; for `CCCNC1CCc2c(O)cccc2C1C` (stereo unspecified): 2.88.
In the case of `COc1cccc2c1C(=O)c1c(O)c3c(c(O)c1C2=O)CC(O)(C(=O)CO)CC3OC1CC(N(C)C)C(O)C(C)O1` (stereo unspecified), the lipophilicity (logP) stood at 1.28.
The same measure for `Cc1cc(C)cc(Cc2c[nH]cn2)c1`: 2.52; for `Cc1coc2nc3oc(=O)ccc3c(C)c12`: 1.71; for `CCOP(=O)(Oc1ccc(C#N)cc1)c1ccccc1` (stereo unspecified): 2.44.
The same measure for `Cc1cc2c(C)cc3oc(=O)cc(C)c3c2o1`: 3.25; for `CCC(C)C(NC(=O)C(C)N)C(=O)O` (stereo unspecified): -2.6.
The molecule `C=CCNC(=O)N(CCCC(NC(C)=O)C(=O)NCc1ccccc1)Cc1ccccc1` (stereo unspecified) showed a logP of 1.44.
Regarding `COc1cc(OC)c2c(c1)OC(c1ccc(OC)c(OC)c1)C(O)C2` (stereo unspecified), the log partition coefficient (logP) stood at 3.1.
The same measure for `Cc1oc2ccc3c(C)cc(=O)oc3c2c1C`: 3.28; for `COCCNc1ncnc2c1ncn2C1OC(CO)C(O)C1O` (stereo unspecified): -0.49; for `O=c1nc(Nc2ccccc2)[nH]c2c1ncn2CCCCO`: 1.26.
In turn, `COc1cccc(CCl)c1` registered a logP of 2.68.
The same measure for `O=C(O)C1CSC(c2ccc(O)cc2O)=N1` (stereo unspecified): 1.1; for `CCCC(=O)OC1Cc2c(O)cc(O)cc2OC1c1ccc(O)c(O)c1` (stereo unspecified): 2.47.
The molecule `Brc1c2ccccc2cc2ccccc12` showed a logP of 5.37.
The same measure for `CC(C)(C)c1ccc(C(CCN2CCCCC2)c2ccccc2)cc1` (stereo unspecified): 6.83.
`Clc1ccc(-c2noc(N3CCOCC3)n2)cc1` gave a lipophilicity (logP) of 3.1.
Consider `CCCNc1ccncc1S(=O)(=O)NC(=NC#N)NC(C)C`, for which the logP turned out to be 0.35.
Regarding `CC(NC(=O)C(N)Cc1c[nH]c2ccccc12)C(=O)O` (stereo unspecified), the logP was -1.98.
